Laboratory results from patent publication US20230017045A1, “PYRIDINE AND PYRIMIDINE CARBOXYLATE HERBICIDES AND METHODS OF USE THEREOF” (Dow AgroSciences LLC, priority 2017, published 2023).

test system: test plant species; assay: Post-emergent herbicidal activity test (greenhouse, foliar spray, visual growth reduction); type: in vivo; details: post-emergence, 336 h, ECHCG: barnyardgrass (Echinochloa crus-galli), 140 g ai/ha, 14 days after application, read-out: Visual Growth Reduction (%) 14 Days After Application, ECHCG
Protocol: Post-emergent Test: Seeds or nutlets of the desired test plant species were planted in Sun Gro Metro-Mix® 360 planting mixture, which typically has a pH of 6.0 to 6.8 and an organic matter content of about 30 percent, in plastic pots with a surface area of 64 square centimeters. In some aspects, to ensure good germination and healthy plants, a fungicide treatment and/or other chemical or physical treatment was applied. The plants were grown for 7-21 d in a greenhouse with an approximate 15 h photoperiod which was maintained at 23-29° C. during the day and 22-28° C. during the night. Nutrients and water were added on a regular basis and supplemental lighting was provided with overhead metal halide 1000-Watt lamps as necessary. Plants were used for testing when they reached the first or second true leaf stage. A weighed amount, determined by the highest rate to be tested, of each test compound was placed in a 25 mL glass vial and was dissolved in 4 mL of a 97:3 v/v mixture of acetone and DMSO to obtain concentrated stock solutions. […] The concentrated stock solutions obtained were diluted with 20 mL of an aqueous mixture containing acetone, water, isopropyl alcohol, DMSO, […] crop oil concentrate, and X-77 surfactant in a 48.5:39:10:1.5:1.0:0.02 v/v ratio to obtain spray solutions containing the application rate. Compound requirements are based upon a 12 mL application volume at a rate of 187 liters per hectare (L/ha). Formulated compounds were applied to the plant material with an overhead Mandel track sprayer equipped with […] nozzles calibrated to deliver 187 L/ha over an application area of 0.64 square meters at a spray height of 18 inches (43 cm) above the average plant canopy height. Control plants were sprayed in the same manner with the solvent blank. The treated plants and control plants were placed in a greenhouse as described above and watered by subirrigation to prevent wash-off of the test compounds. After 14 d, the condition of the test plants as compared with that of the nontreated and control plants was determined visually and scored on a scale of 0 to 100 percent where 0 corresponds to no injury and 100 corresponds to complete control. In the reporting of the results, Table A: Percent Growth Reduction Conversion Table was used.

Compound | pest or weed control at 140 g/ha
COC(=O)c1nc(-c2c(Cl)cc(C(F)(F)F)cc2[N+](=O)[O-])ccc1Cl [F206, Methyl 3-chloro-6-(2-chloro-6-nitro-4-(trifluoromethyl)phenyl)picolinate] | 0 to 29%
COC(=O)c1nc(-c2ccc(N)cc2Cl)c(F)cc1Cl [F358, Methyl 6-(4-amino-2-chlorophenyl)-3-chloro-5-fluoropicolinate] | 0 to 29%

same assay, conditions: post-emergence, 336 h, IPOHE: ivy-leaf morning glory (Ipomoea hederacea), 140 g ai/ha, 14 days after application, read-out: Visual Growth Reduction (%) 14 Days After Application, IPOHE

Compound | pest or weed control at 140 g/ha
COC(=O)c1nc(-c2c(Cl)cc(C(F)(F)F)cc2[N+](=O)[O-])ccc1Cl [F206, Methyl 3-chloro-6-(2-chloro-6-nitro-4-(trifluoromethyl)phenyl)picolinate] | 95 to 100%
COC(=O)c1nc(-c2ccc(N)cc2Cl)c(F)cc1Cl [F358, Methyl 6-(4-amino-2-chlorophenyl)-3-chloro-5-fluoropicolinate] | 0 to 29%

same assay, conditions: post-emergence, 336 h, KCHSC: kochia (Bassia scoparia), 140 g ai/ha, 14 days after application, read-out: Visual Growth Reduction (%) 14 Days After Application, KCHSC

Compound | pest or weed control at 140 g/ha
COC(=O)c1nc(-c2c(Cl)cc(C(F)(F)F)cc2[N+](=O)[O-])ccc1Cl [F206, Methyl 3-chloro-6-(2-chloro-6-nitro-4-(trifluoromethyl)phenyl)picolinate] | 30 to 44%
COC(=O)c1nc(-c2ccc(N)cc2Cl)c(F)cc1Cl [F358, Methyl 6-(4-amino-2-chlorophenyl)-3-chloro-5-fluoropicolinate] | 0 to 29%

same assay, conditions: post-emergence, 336 h, ORYSA: rice (Oryza sativa), 140 g ai/ha, 14 days after application, read-out: Visual Growth Reduction (%) 14 Days After Application, ORYSA

Compound | pest or weed control at 140 g/ha
COC(=O)c1nc(-c2c(Cl)cc(C(F)(F)F)cc2[N+](=O)[O-])ccc1Cl [F206, Methyl 3-chloro-6-(2-chloro-6-nitro-4-(trifluoromethyl)phenyl)picolinate] | 75 to 84%
COC(=O)c1nc(-c2ccc(N)cc2Cl)c(F)cc1Cl [F358, Methyl 6-(4-amino-2-chlorophenyl)-3-chloro-5-fluoropicolinate] | 0 to 29%

same assay, conditions: post-emergence, 336 h, SETFA: giant foxtail (Setaria faberi), 140 g ai/ha, 14 days after application, read-out: Visual Growth Reduction (%) 14 Days After Application, SETFA

Compound | pest or weed control at 140 g/ha
COC(=O)c1nc(-c2c(Cl)cc(C(F)(F)F)cc2[N+](=O)[O-])ccc1Cl [F206, Methyl 3-chloro-6-(2-chloro-6-nitro-4-(trifluoromethyl)phenyl)picolinate] | 75 to 84%
COC(=O)c1nc(-c2ccc(N)cc2Cl)c(F)cc1Cl [F358, Methyl 6-(4-amino-2-chlorophenyl)-3-chloro-5-fluoropicolinate] | 0 to 29%

same assay, conditions: post-emergence, 336 h, SORVU: grain sorghum (Sorghum vulgare), 140 g ai/ha, 14 days after application, read-out: Visual Growth Reduction (%) 14 Days After Application, SORVU

Compound | pest or weed control at 140 g/ha
COC(=O)c1nc(-c2c(Cl)cc(C(F)(F)F)cc2[N+](=O)[O-])ccc1Cl [F206, Methyl 3-chloro-6-(2-chloro-6-nitro-4-(trifluoromethyl)phenyl)picolinate] | 75 to 84%
COC(=O)c1nc(-c2ccc(N)cc2Cl)c(F)cc1Cl [F358, Methyl 6-(4-amino-2-chlorophenyl)-3-chloro-5-fluoropicolinate] | 0 to 29%

same assay, conditions: post-emergence, 336 h, STEME: common chickweed (Stellaria media), 140 g ai/ha, 14 days after application, read-out: Visual Growth Reduction (%) 14 Days After Application, STEME

Compound | pest or weed control at 140 g/ha
COC(=O)c1nc(-c2c(Cl)cc(C(F)(F)F)cc2[N+](=O)[O-])ccc1Cl [F206, Methyl 3-chloro-6-(2-chloro-6-nitro-4-(trifluoromethyl)phenyl)picolinate] | 0 to 29%
COC(=O)c1nc(-c2ccc(N)cc2Cl)c(F)cc1Cl [F358, Methyl 6-(4-amino-2-chlorophenyl)-3-chloro-5-fluoropicolinate] | 0 to 29%

same assay, conditions: post-emergence, 336 h, TRZAS: wheat, spring (Triticum aestivum), 140 g ai/ha, 14 days after application, read-out: Visual Growth Reduction (%) 14 Days After Application, TRZAS

Compound | pest or weed control at 140 g/ha
COC(=O)c1nc(-c2c(Cl)cc(C(F)(F)F)cc2[N+](=O)[O-])ccc1Cl [F206, Methyl 3-chloro-6-(2-chloro-6-nitro-4-(trifluoromethyl)phenyl)picolinate] | 0 to 29%
COC(=O)c1nc(-c2ccc(N)cc2Cl)c(F)cc1Cl [F358, Methyl 6-(4-amino-2-chlorophenyl)-3-chloro-5-fluoropicolinate] | 0 to 29%

same assay, conditions: post-emergence, 336 h, blackgrass (Alopecurus myosuroides), 14 Days After Application, 140 g ai/ha, read-out: Visual Growth Reduction (%) ALOMY

Compound | pest or weed control at 140 g/ha
COC(=O)c1nc(-c2c(Cl)cc(C(F)(F)F)cc2[N+](=O)[O-])ccc1Cl [F206, Methyl 3-chloro-6-(2-chloro-6-nitro-4-(trifluoromethyl)phenyl)picolinate] | 0 to 29%
COC(=O)c1nc(-c2ccc(N)cc2Cl)c(F)cc1Cl [F358, Methyl 6-(4-amino-2-chlorophenyl)-3-chloro-5-fluoropicolinate] | 0 to 29%

same assay, conditions: post-emergence, 336 h, canada thistle (Cirsium arvense), 14 Days After Application, 140 g ai/ha, read-out: Visual Growth Reduction (%) CIRAR

Compound | pest or weed control at 140 g/ha
COC(=O)c1nc(-c2c(Cl)cc(C(F)(F)F)cc2[N+](=O)[O-])ccc1Cl [F206, Methyl 3-chloro-6-(2-chloro-6-nitro-4-(trifluoromethyl)phenyl)picolinate] | 30 to 44%
COC(=O)c1nc(-c2ccc(N)cc2Cl)c(F)cc1Cl [F358, Methyl 6-(4-amino-2-chlorophenyl)-3-chloro-5-fluoropicolinate] | 0 to 29%

same assay, conditions: post-emergence, 336 h, crabgrass (Digitaria sanguinalis), 14 Days After Application, 140 g ai/ha, read-out: Visual Growth Reduction (%) DIGSA

Compound | pest or weed control at 140 g/ha
COC(=O)c1nc(-c2c(Cl)cc(C(F)(F)F)cc2[N+](=O)[O-])ccc1Cl [F206, Methyl 3-chloro-6-(2-chloro-6-nitro-4-(trifluoromethyl)phenyl)picolinate] | 45 to 59%
COC(=O)c1nc(-c2ccc(N)cc2Cl)c(F)cc1Cl [F358, Methyl 6-(4-amino-2-chlorophenyl)-3-chloro-5-fluoropicolinate] | 0 to 29%

same assay, conditions: post-emergence, 336 h, lambsquarters (Chenopodium album), 14 Days After Application, 140 g ai/ha, read-out: Visual Growth Reduction (%) CHEAL

Compound | pest or weed control at 140 g/ha
COC(=O)c1nc(-c2c(Cl)cc(C(F)(F)F)cc2[N+](=O)[O-])ccc1Cl [F206, Methyl 3-chloro-6-(2-chloro-6-nitro-4-(trifluoromethyl)phenyl)picolinate] | 30 to 44%
COC(=O)c1nc(-c2ccc(N)cc2Cl)c(F)cc1Cl [F358, Methyl 6-(4-amino-2-chlorophenyl)-3-chloro-5-fluoropicolinate] | 0 to 29%

same assay, conditions: post-emergence, 336 h, redroot pigweed (Amaranthus retroflexus), 14 Days After Application, 140 g ai/ha, read-out: Visual Growth Reduction (%) AMARE

Compound | pest or weed control at 140 g/ha
COC(=O)c1nc(-c2c(Cl)cc(C(F)(F)F)cc2[N+](=O)[O-])ccc1Cl [F206, Methyl 3-chloro-6-(2-chloro-6-nitro-4-(trifluoromethyl)phenyl)picolinate] | 45 to 59%
COC(=O)c1nc(-c2ccc(N)cc2Cl)c(F)cc1Cl [F358, Methyl 6-(4-amino-2-chlorophenyl)-3-chloro-5-fluoropicolinate] | 0 to 29%

same assay, conditions: post-emergence, 336 h, wild oat (Avena fatua), 14 Days After Application, 140 g ai/ha, read-out: Visual Growth Reduction (%) AVEFA

Compound | pest or weed control at 140 g/ha
COC(=O)c1nc(-c2c(Cl)cc(C(F)(F)F)cc2[N+](=O)[O-])ccc1Cl [F206, Methyl 3-chloro-6-(2-chloro-6-nitro-4-(trifluoromethyl)phenyl)picolinate] | 0 to 29%
COC(=O)c1nc(-c2ccc(N)cc2Cl)c(F)cc1Cl [F358, Methyl 6-(4-amino-2-chlorophenyl)-3-chloro-5-fluoropicolinate] | 0 to 29%

same assay, conditions: post-emergence, 336 h, yellow nutsedge (Cyperus esculentus), 14 Days After Application, 140 g ai/ha, read-out: Visual Growth Reduction (%) CYPES

Compound | pest or weed control at 140 g/ha
COC(=O)c1nc(-c2c(Cl)cc(C(F)(F)F)cc2[N+](=O)[O-])ccc1Cl [F206, Methyl 3-chloro-6-(2-chloro-6-nitro-4-(trifluoromethyl)phenyl)picolinate] | 0 to 29%
COC(=O)c1nc(-c2ccc(N)cc2Cl)c(F)cc1Cl [F358, Methyl 6-(4-amino-2-chlorophenyl)-3-chloro-5-fluoropicolinate] | 0 to 29%
